# Read-outs that look alike come from different tables or passages of the source.
# How the values were obtained:
# PANC-1 cell line [1] = assay: cells; details: for fold decrease in PANC-1 potency (PP<) relative to makaluvamine J (9) / fold decrease in PANC-1 potency (PP<) relative to makaluvamine A (1): '<' in PP codes a decrease in potency; for PANC-1 cytotoxic potency (words): PANC-1 (set of b111: PANC-1 and/or OVCAR tumor cells)
# Description: The task of IC50 assessment for the natural products isolated in this study against the PANC-1 tumor cells line began immediately following the purification and characterization of each pyrrolo[4,3,2-de]quinoline obtained (FIG. 3). […] However, a sample of ammosamide B (17) was obtained from the NCI Molecular Targets Laboratory. Two additional clinically used compounds, etoposide and teniposide were also run in the assay.
# The soft agar disk diffusion assay, IC50 determination, and clonogenic assay were performed as previously described.
# OVCAR-5 [2] = assay: IC50 determination against OVCAR-5 ovarian cancer cell line; type: cell-based, human; details: for IC50: OVCAR-5, values of the text
# Description: The soft agar disk diffusion assay, IC50 determination, and clonogenic assay were performed as previously described [35].
# OVCAR-3 = details: first value of OVCAR-3/-5 cell, refs [9], [38], NCI-DTP database; cited from earlier work
# PANC-1 cell line [3] = details: cited from earlier work; for IC50: read-out: PANC-1 IC50, PANC-1, literature data, refs [25], [26], [30]
# OVCAR-5 [4] = details: second value of OVCAR-3/-5 cell, ref [9], NCI-DTP database; cited from earlier work
# KB xenografts = details: KB mouse model xenografts, ref [9]; cited from earlier work
# HCT-116 cells = assay: Clonogenic dose-response assay, continuous exposure; type: cell-based
# Description: FIG. 7 Evaluation of makaluvamine J (9) through clonogenic dose-response evaluation employing HCT-116 cells. Continuous exposure of the cells with 9 at different concentrations during periods of: 2 hr, 24 hr, or 120 hr. Efficacy is indicated when the surviving fraction is less than 0.1.
# Accurate determination of the exposures required to achieve a useful in vivo therapeutic effect is the outcome being sought through clonogenic study. Illustrated here are data measuring the cytotoxic effect of makaluvamine J (9) at varying concentrations during continuous exposure. Other relevant data to be obtained in the future consists of: (a) repeating the clonogenic runs on makaluvamine acetate J (15), (b) obtaining the maximum tolerated dose (MTD) for both, and (c) assessing the pharmacokinetic behavior of these compounds measured in both plasma and tumors, (PANC-1 and OVC-5) at the MTD which will be tracked through by MS^2 data. The key measurement involved determining the required time-concentration profile to obtain a 90% kill (10% survival-S10) of tumor cells. […] At this juncture it appears that a chronic exposure for five days will be effective and the exact therapeutics regime will depend on the MTD determination data and future pharmacokinetic results.
# [5] = read-out: PANC-1 IC50, PANC-1 pancreatic tumor cell line
# [6] = Homo sapiens, PANC-1, read-out: PANC-1 IC50, PANC-1 pancreatic tumor cell line
compound,measurement,setting,value
"8,15-O-diacetyl-8-hydroxy-5a,7,8a-trien-makaluvamine J",fold decrease in PANC-1 potency (PP<) relative to makaluvamine J (9),PANC-1 cell line [1]; ratio of PANC-1 IC50,~10 fold
same,IC50,PANC-1 cell line [1]; [5],590 nM
9-N-acetyl makaluvamine B [9-N-acetyl makaluvamine B (14)],fold decrease in PANC-1 potency (PP<) relative to makaluvamine A (1),PANC-1 cell line [1]; ratio of PANC-1 IC50,> 200 fold
same,IC50,PANC-1 cell line [1]; [5],91000 nM
15-O-acetyl makaluvamine J [15-O-acetyl makaluvamine J (15)],PANC-1 cytotoxic potency (words),PANC-1 cell line [1],most potent IC50 values
same,fold decrease in PANC-1 potency (PP<) relative to makaluvamine J (9),PANC-1 cell line [1]; ratio of PANC-1 IC50,1.5 fold
same,IC50,PANC-1 cell line [1]; [5],81 nM
same,IC50,OVCAR-5 [2],8.6 nM
same,fold increase in OVCAR-5 potency over makaluvamine J (9),OVCAR-5 [2]; ratio of OVCAR-5 IC50,14 fold
"O=C1C(NCc2ccc(F)cc2)=CC2=NCCc3c[nH]c1c32 [FBA-TBQ (18), 7-(4-fluorobenzylamino)-1,3,4,8-tetrahydropyrrolo[4,3,2-de]quinolin-8(1H)-one, reference compound]",less potent than makaluvamine J (9) against PANC-1,PANC-1 cell line [1]; comparison of PANC-1 IC50 with 9,~50%
same,IC50,OVCAR-3,950 nM
same,cytotoxicity against PANC-1 cells (words),PANC-1 cell line [3],moderate cytotoxicity
same,IC50,PANC-1 cell line [3],110 nM
"CN1C(=O)c2cc(C(N)=O)nc3c(N)c(Cl)c(N)c1c23 [ammosamide B (17), ammosamide B, reference compound]",IC50,PANC-1 cell line [1]; [5],26000 nM
"CN1CCc2cn(C)c3c2C1=CC(=O)C3=O [damirone A (5), damirone A]",IC50,PANC-1 cell line [1]; [5],160000 nM
"CN1CCc2c[nH]c3c2C1=CC(=O)C3=O [damirone B (3), damirone B]",IC50,PANC-1 cell line [1]; [5],19000 nM
"COc1cc([C@@H]2c3cc4c(cc3[C@@H](O[C@@H]3O[C@@H]5CO[C@@H](C)O[C@H]5[C@H](O)[C@H]3O)[C@H]3COC(=O)[C@H]23)OCO4)cc(OC)c1O [etoposide, reference compound]",IC50,PANC-1 cell line [1]; [6],390 nM
Nc1ccn([C@@H]2O[C@H](CO)[C@@H](O)C2(F)F)c(=O)n1 [gemcitabine],IC50,PANC-1 cell line [3],7200 nM
CSc1c2c3c(n1C)C(=O)C(N)=C(Cl)C3=NCC2 [isobatzelline A],cytotoxicity against PANC-1 cells (words),PANC-1 cell line [3]; literature surveys,moderate cytotoxicity
"Cn1cc2c3c1C(=O)C(N)=C(Cl)C3=NCC2 [isobatzelline C (19), isobatzelline C]",cytotoxicity against PANC-1 cells (words),"PANC-1 cell line [3]; literature surveys, listed as 19",relatively inactive
same,cytotoxicity against PANC-1 cells (words),"PANC-1 cell line [3]; literature surveys, listed as isobatzelline C",moderate cytotoxicity
same,IC50,PANC-1 cell line [3],10000 nM
CSc1c2ccnc3c2c(n1C)C(=O)C(N)=C3Cl [isobatzelline D],cytotoxicity against PANC-1 cells (words),PANC-1 cell line [3]; literature surveys,moderate cytotoxicity
"Cn1cc2c3c1C(=O)C(N)=CC3=NCC2 [makaluvamine A (1), makaluvamine A]",IC50,PANC-1 cell line [1]; [5],450 nM
"C[N+]1=C2C=C(N)C(=O)c3[nH]cc(c32)CC1.[Cl-] [makaluvamine C (2), makaluvamine C]",fold decrease in PANC-1 potency (PP<) relative to makaluvamine J (9),PANC-1 cell line [1]; ratio of PANC-1 IC50,13.5 fold
same,IC50,PANC-1 cell line [1]; [5],730 nM
same,IC50,OVCAR-3,240 nM
"Cn1cc2c3c1C(=O)C(N/C=C/c1ccc(O)cc1)=CC3=[N+](C)CC2 [makaluvamine G (8), makaluvamine G]",IC50,PANC-1 cell line [1]; [5],6200 nM
"Cn1cc2c3c1C(=O)C(N)=CC3=[N+](C)CC2.O=C([O-])C(F)(F)F [makaluvamine H (4), makaluvamine H]",fold decrease in PANC-1 potency (PP<) relative to makaluvamine A (1),PANC-1 cell line [1]; ratio of PANC-1 IC50,7.9 fold
same,IC50,PANC-1 cell line [1]; [5],3600 nM
same,IC50,OVCAR-3,960 nM
same,IC50,OVCAR-5 [4],100 nM
same,T/C % (tumor volume in treated/tumor volume in untreated),KB xenografts,38%
"C[N+]1=C2C=C(NCCc3ccc(O)cc3)C(=O)c3[nH]cc(c32)CC1 [makaluvamine J (9), makaluvamine J]",PANC-1 cytotoxic potency (words),PANC-1 cell line [1],most potent
same,PANC-1 cytotoxic potency (words),PANC-1 cell line [1]; listed as 9,most potent IC50 values
same,IC50,PANC-1 cell line [1]; [5],54 nM
same,IC50,OVCAR-5 [2],120 nM
same,"2S10, concentration for 90% kill (10% survival)","HCT-116 cells; HCT-116, 2 h exposure, extrapolated",3 µg/mL
same,"24S10, concentration for 90% kill (10% survival)","HCT-116 cells; HCT-116, 24 h exposure",400 ng/mL
same,"120S10, concentration for 90% kill (10% survival)","HCT-116 cells; HCT-116, 120 h exposure",30 ng/mL
same,toxicity to HCT-116 cells,HCT-116 cells; two hour dosing schedule,Little toxicity
"Cn1cc2c3c1C(=O)C(NCCc1ccc(O)cc1)=CC3=NCC2 [makaluvamine K (10), makaluvamine K]",fold decrease in PANC-1 potency (PP<) relative to makaluvamine A (1),PANC-1 cell line [1]; ratio of PANC-1 IC50,1.2 fold
same,fold decrease in PANC-1 potency (PP<) relative to makaluvamine J (9),PANC-1 cell line [1]; ratio of PANC-1 IC50,10.4 fold
same,IC50,PANC-1 cell line [1]; [5],560 nM
"C[N+]1=C2C=C(N/C=C/c3ccc(O)cc3)C(=O)c3[nH]cc(c32)CC1.O=C([O-])C(F)(F)F [makaluvamine L (11), makaluvamine L]",fold decrease in PANC-1 potency (PP<) relative to makaluvamine J (9),PANC-1 cell line [1]; ratio of PANC-1 IC50,35.0 fold
same,IC50,PANC-1 cell line [1]; [5],1900 nM
"Cn1cc2c3c1C(=O)C(NCCc1ccc(O)cc1)=CC3=[N+](C)CC2.[Cl-] [makaluvamine P (12), makaluvamine P]",fold increase in PANC-1 potency (PP>) relative to makaluvamine H (4),"PANC-1 cell line [1]; ratio of PANC-1 IC50, '>' in PP codes an increase in potency",12.3
same,IC50,PANC-1 cell line [1]; [5],300 nM
N=C1C(Cl)=C(N)C(=O)c2[nH]cc(C(O)CO)c21 (stereo not drawn) [secobatzelline A],cytotoxicity against PANC-1 cells (words),PANC-1 cell line [3]; literature surveys,moderate cytotoxicity
"COc1cc([C@@H]2c3cc4c(cc3[C@@H](O[C@@H]3O[C@@H]5CO[C@@H](c6cccs6)O[C@H]5[C@H](O)[C@H]3O)[C@H]3COC(=O)[C@H]23)OCO4)cc(OC)c1O [teniposide, reference compound]",IC50,PANC-1 cell line [1]; [6],40 nM
same,IC50,PANC-1 cell line [1]; [5],41 nM
damirone D [damirone D (6)],IC50,PANC-1 cell line [1]; [5],3400 nM
makaluvamine D [makaluvamine D (7)],IC50,PANC-1 cell line [1]; [5],290 nM
makaluvamine I [reference compound],T/C % (tumor volume in treated/tumor volume in untreated),KB xenografts,34%

# Source: patent US11020488B2, “Pyrroloquinolin compounds and methods of using same” (The Regents of the University of California, priority 2017, dated 2021)
